Source: paper PMC4102531, “Pharmacologic Inhibition of Sphingomyelin Synthase (SMS) Activity Reduces Apolipoprotein-B Secretion from Hepatocytes and Attenuates Endotoxin-Mediated Macrophage Inflammation” (PLoS ONE, 2014)

Target: T1, SMS2 (sphingomyelin synthase 2) (Mus musculus, UniProt Q9D4B1)
T1 construct: gene Sgms2; native enzyme in liver homogenate of SMS1 KO mice
T1 sequence (Q9D4B1 1-365): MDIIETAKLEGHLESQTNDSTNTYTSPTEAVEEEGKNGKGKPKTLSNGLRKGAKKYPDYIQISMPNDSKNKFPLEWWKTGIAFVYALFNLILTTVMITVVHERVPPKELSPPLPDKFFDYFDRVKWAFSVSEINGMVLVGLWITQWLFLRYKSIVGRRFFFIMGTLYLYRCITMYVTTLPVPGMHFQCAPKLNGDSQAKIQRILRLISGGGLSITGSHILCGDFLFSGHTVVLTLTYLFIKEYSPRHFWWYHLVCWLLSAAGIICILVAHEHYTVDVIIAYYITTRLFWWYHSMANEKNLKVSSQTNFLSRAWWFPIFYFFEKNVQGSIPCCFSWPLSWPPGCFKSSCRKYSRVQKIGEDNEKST
Assay: SMS activity assay in SMS1 KO mouse liver homogenate
Assay type: cell-based

## N#CC(Nc1ccccc1)c1ccccc1OCc1ccccc1 (stereo not shown) [Dy105, 2-(2-(benzyloxy)phenyl)-2-(phenylamino) acetonitrile]
  SMS activity assay in SMS1 KO mouse liver homogenate: we found the compound can inhibit SMS2 but not SMS1 activity (Fig. 3A and B) in the liver
